Assay results reported in ChEMBL document CHEMBL1201862, “PubChem BioAssay data set” (2004).
The source made the active and inactive calls.

Columns and labels:
Cytochrome P450 2C9 = Cytochrome P450 2C9 (Homo sapiens, UniProt P11712)
Cytochrome P450 2D6 = Cytochrome P450 2D6 (Homo sapiens, UniProt P10635);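 also: CYP2D6 member of a cytochrome P450 panel assay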
Cytochrome P450 2C19 = Cytochrome P450 2C19 (Homo sapiens, UniProt P33261); experiment: Cytochrome panel assay with activity outcomes. Panel member name: p450-cyp2c19 Compounds with AC50 equal or less than 10 uM are considered active; format: functional; conditions: read-out: AC50
Cytochrome P450 2C19, sequence (P33261 whole entry): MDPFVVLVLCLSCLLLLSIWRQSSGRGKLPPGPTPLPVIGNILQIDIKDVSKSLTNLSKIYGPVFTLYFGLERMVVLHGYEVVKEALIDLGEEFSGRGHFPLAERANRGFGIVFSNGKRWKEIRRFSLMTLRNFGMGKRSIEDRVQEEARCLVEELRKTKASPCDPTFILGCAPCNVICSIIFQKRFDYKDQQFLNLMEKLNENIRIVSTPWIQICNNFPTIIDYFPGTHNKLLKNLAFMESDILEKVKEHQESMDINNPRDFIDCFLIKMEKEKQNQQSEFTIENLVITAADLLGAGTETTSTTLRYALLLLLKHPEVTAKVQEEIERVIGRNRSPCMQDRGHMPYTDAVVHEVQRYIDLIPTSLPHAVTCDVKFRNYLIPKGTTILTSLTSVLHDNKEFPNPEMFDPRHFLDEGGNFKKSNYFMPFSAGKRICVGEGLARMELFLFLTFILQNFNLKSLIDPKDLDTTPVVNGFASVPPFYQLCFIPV

[1] = HepG2 cell cytotoxicity, dose response, cytotoxicity control for Shn3 inhibitor project, CellTiter-Glo, cherry-picked (AID 624134); format: functional, cell-based
[2] = Shn3 3'UTR reporter inhibitors, dose response, cell-based, Clone20 osteoblasts, firefly luciferase, cherry-picked (AID 624132); format: functional;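 also: firefly luciferase luminescence from reporter carrying the Shn3 3'UTR in osteoblasts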
[3] = target: T1, Replicative DNA helicase DnaB (Mycobacterium tuberculosis, UniProt P9WMR3); experiment: DnaB intein splicing inhibitors, dose response, biochemical, cell-free fluorescence (AID 449749); format: functional
T1 sequence (P9WMR3 whole entry): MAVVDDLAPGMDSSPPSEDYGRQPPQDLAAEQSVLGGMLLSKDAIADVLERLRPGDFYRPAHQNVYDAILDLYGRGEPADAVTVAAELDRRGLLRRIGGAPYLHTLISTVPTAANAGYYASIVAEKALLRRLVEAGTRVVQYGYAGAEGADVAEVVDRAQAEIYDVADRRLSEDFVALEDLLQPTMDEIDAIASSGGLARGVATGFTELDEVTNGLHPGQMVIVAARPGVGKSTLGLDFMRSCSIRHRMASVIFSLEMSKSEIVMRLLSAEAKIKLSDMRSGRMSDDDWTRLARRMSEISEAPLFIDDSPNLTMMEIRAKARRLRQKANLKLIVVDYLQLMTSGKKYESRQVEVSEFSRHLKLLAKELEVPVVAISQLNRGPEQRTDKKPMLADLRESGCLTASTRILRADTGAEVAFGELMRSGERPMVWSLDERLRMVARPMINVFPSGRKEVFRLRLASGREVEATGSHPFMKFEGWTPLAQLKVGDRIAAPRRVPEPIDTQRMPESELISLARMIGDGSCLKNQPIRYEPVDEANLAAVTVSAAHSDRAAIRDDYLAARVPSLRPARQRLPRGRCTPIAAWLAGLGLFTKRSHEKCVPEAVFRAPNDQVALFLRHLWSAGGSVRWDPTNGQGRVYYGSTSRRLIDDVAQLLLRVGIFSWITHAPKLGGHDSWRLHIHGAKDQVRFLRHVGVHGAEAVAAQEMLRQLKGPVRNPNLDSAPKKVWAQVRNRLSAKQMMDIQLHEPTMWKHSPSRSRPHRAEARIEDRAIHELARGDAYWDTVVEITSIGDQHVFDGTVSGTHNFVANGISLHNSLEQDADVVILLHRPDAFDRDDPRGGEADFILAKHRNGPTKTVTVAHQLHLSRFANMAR

Protein RecA = target: T2, Protein RecA (Mycobacterium tuberculosis, UniProt P9WHJ3); experiment: Fluorescence Cell-Free Homogeneous Dose Retest to Identify Inhibitors of RecA-Intein Splicing Activity. [Related pubchem assays (depositor defined):AID2097, AID2223, AID489010, AID492950]; format: functional
T2 sequence (P9WHJ3 whole entry): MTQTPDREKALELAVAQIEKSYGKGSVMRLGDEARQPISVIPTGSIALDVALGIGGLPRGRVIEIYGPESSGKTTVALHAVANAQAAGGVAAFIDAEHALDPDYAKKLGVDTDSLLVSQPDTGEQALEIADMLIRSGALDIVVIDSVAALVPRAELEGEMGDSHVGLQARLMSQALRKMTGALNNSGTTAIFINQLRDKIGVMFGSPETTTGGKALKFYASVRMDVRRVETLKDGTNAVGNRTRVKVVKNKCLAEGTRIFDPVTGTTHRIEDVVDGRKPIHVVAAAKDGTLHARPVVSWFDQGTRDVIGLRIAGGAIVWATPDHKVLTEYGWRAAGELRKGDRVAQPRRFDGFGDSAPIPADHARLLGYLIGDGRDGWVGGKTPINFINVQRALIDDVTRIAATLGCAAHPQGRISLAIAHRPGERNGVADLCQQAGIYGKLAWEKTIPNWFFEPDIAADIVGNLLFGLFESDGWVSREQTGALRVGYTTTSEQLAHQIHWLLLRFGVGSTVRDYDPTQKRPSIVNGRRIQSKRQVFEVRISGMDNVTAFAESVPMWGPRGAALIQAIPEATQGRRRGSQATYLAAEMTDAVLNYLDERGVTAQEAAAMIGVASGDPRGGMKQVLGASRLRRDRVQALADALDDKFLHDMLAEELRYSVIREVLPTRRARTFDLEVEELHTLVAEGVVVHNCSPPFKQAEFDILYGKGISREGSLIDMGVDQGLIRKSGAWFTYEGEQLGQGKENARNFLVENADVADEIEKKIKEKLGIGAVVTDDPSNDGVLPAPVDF

[4] = control 3'UTR Renilla luciferase suppression, dose response, counter-screen for Shn3 inhibitor project, cell-based, Clone20-Shn3RL, cherry-picked (AID 624133); format: functional
Paired box protein Pax-8 = Paired box protein Pax-8 (Homo sapiens, UniProt Q06710); experiment: inhibitors of PAX8-driven TPO luciferase reporter, dose response, RMG-I cells, cherry-pick (AID 687027); format: functional, cell-based;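 also: luciferase reporter driven by Pax8 target thyroperoxidase promoter measured by SteadyGlo luminescence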
Paired box protein Pax-8, sequence (Q06710 whole entry): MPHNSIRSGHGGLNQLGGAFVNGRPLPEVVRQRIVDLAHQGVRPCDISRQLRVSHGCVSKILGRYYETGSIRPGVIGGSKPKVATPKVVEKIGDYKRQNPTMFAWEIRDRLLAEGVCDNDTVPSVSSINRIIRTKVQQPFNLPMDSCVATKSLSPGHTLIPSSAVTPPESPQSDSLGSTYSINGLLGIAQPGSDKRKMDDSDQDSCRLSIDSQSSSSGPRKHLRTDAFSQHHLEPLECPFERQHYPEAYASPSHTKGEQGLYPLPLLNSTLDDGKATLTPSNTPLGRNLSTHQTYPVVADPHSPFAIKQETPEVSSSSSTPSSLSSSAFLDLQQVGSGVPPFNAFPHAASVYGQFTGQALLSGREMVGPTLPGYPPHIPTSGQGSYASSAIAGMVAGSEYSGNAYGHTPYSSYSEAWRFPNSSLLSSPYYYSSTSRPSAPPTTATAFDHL

INS1 = experiment: beta cell apoptosis inhibitors, cytokine rescue, dose response, luminescence, retest (AID 449756); format: functional, cell-based; conditions: Rattus norvegicus;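 also: cell death triggered by IL-1 beta plus TNF-alpha plus IFN-gamma mixture; protective hits raise ATP signal compared with cytokine alone wells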
[5] = target: Photoreceptor-specific nuclear receptor (Homo sapiens, UniProt Q9Y5X4); format: functional, cell-based;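 also: CHO-S cells with Gal4-NCOR and VP16-NR2E3 two-hybrid luciferase reporter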
Photoreceptor-specific nuclear receptor, sequence (Q9Y5X4 whole entry, the tested form may be a part): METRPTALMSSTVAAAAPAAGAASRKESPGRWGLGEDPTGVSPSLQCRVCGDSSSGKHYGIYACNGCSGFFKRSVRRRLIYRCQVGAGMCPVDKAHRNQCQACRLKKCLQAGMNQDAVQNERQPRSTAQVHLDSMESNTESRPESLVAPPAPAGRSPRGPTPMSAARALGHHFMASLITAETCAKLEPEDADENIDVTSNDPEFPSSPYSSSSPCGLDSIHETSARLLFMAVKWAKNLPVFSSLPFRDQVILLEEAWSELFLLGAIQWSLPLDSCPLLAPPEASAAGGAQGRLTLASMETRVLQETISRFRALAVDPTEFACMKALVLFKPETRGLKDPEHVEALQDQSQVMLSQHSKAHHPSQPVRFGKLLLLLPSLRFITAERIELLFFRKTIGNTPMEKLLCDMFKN

HEK293 [6] = experiment: cells; format: functional, cell-based; conditions: Homo sapiens
[7] = target: T3, Nuclear receptor subfamily 0 group B member 1 (Homo sapiens, UniProt P51843); experiment: Luminescence-based cell-based high throughput dose response assay for inhibitors of the orphan nuclear receptor subfamily 0, group B, member 1 (DAX1; NR0B1). [Related pubchem assays (depositor defined):AID504766, AID504790]; format: functional
T3 sequence (P51843 whole entry): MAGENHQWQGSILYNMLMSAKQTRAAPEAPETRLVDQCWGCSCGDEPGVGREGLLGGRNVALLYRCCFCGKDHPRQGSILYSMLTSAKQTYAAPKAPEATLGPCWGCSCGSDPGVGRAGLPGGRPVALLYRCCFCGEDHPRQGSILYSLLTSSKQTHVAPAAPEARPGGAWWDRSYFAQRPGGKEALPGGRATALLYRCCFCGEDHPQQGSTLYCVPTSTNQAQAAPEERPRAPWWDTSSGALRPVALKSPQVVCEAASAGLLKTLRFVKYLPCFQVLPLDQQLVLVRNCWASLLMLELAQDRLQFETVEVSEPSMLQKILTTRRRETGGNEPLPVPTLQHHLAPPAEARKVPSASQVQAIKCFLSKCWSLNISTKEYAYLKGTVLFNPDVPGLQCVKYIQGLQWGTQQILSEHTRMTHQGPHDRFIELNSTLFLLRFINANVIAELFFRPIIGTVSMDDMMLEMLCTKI

HEK293 [8] = experiment: NOD2 signaling inhibitors in MDP-stimulated cells, cell-based, uHTS, luminescence (AID 2001); format: functional; conditions: Homo sapiens
HEK293 [9] = experiment: cells; format: functional, cell-based; conditions: Homo sapiens; remark: listed apart in the source
Tumor necrosis factor = Tumor necrosis factor (Homo sapiens, UniProt P01375); experiment: TNFa-triggered NF-kB activation inhibitors, SAR follow-up, cell-based, revised (AID 2337); format: functional
Tumor necrosis factor, sequence (P01375 whole entry): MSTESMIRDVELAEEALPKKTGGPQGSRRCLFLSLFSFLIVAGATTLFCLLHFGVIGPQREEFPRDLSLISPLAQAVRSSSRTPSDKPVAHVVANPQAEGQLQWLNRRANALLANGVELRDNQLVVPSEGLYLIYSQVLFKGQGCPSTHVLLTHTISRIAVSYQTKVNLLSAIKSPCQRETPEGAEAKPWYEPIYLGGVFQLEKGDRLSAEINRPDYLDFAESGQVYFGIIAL

HEK293 [10] = experiment: NOD1 signaling inhibitors, primary screen, cell-based, luminescence, uHTS (AID 1578); format: functional; conditions: Homo sapiens
HEK293 [11] = experiment: cells; conditions: Homo sapiens
HEK293 [12] = experiment: cells; format: functional, cell-based; conditions: Homo sapiens; remark: listed apart in the source
[13] = target: T4, Nucleotide-binding oligomerization domain-containing protein 1 (Homo sapiens, UniProt Q9Y239); experiment: NOD1 signaling inhibitors, SAR follow-up, revised (AID 2333); format: functional
T4 sequence (Q9Y239 whole entry): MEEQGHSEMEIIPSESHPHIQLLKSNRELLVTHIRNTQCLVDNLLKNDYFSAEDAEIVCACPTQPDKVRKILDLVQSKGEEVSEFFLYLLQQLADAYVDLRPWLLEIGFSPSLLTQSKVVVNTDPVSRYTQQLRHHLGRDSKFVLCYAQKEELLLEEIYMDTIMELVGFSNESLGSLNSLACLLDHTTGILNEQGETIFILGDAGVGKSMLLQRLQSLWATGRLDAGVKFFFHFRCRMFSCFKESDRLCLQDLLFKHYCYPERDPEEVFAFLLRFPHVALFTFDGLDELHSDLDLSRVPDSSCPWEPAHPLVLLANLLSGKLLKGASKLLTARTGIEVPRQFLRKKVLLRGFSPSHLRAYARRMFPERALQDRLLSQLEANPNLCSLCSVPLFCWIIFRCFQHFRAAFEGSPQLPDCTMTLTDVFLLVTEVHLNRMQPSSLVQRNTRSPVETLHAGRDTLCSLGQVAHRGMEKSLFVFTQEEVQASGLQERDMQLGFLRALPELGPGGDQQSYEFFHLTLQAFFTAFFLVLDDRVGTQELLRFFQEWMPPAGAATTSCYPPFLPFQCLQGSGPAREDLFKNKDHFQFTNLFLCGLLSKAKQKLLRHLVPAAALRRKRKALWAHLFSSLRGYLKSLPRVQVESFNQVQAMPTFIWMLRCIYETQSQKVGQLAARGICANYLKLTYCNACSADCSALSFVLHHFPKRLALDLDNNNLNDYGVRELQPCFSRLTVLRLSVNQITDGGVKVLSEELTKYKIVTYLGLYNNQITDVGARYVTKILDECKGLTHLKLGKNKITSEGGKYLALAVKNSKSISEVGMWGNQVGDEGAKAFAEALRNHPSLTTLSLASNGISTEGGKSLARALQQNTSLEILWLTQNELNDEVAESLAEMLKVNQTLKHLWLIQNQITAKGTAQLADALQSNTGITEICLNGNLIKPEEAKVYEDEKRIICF

[14] = target: Heat shock protein HSP 90-alpha (Homo sapiens, UniProt P07900); format: functional, organism-based
[15] = inhibitors of Vif binding to APOBEC3G peptide, primary screen, biochemical, TR-FRET, GST-Vif 1-94, biotin-A3G peptide, dose response retest (AID 1117319); format: functional;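 also: TR-FRET signal of purified GST-Vif binding a biotinylated A3G peptide; inhibitors lower the FRET signal by blocking Vif and A3G binding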
Genome polyprotein = Genome polyprotein (dengue virus type 2, UniProt P29990); experiment: Dengue-2 NS5 methyltransferase inhibitors, primary screen, biochemical, confirmation dose response (AID 588689); format: functional
Genome polyprotein, sequence (P29990 2492-3391 limits assumed): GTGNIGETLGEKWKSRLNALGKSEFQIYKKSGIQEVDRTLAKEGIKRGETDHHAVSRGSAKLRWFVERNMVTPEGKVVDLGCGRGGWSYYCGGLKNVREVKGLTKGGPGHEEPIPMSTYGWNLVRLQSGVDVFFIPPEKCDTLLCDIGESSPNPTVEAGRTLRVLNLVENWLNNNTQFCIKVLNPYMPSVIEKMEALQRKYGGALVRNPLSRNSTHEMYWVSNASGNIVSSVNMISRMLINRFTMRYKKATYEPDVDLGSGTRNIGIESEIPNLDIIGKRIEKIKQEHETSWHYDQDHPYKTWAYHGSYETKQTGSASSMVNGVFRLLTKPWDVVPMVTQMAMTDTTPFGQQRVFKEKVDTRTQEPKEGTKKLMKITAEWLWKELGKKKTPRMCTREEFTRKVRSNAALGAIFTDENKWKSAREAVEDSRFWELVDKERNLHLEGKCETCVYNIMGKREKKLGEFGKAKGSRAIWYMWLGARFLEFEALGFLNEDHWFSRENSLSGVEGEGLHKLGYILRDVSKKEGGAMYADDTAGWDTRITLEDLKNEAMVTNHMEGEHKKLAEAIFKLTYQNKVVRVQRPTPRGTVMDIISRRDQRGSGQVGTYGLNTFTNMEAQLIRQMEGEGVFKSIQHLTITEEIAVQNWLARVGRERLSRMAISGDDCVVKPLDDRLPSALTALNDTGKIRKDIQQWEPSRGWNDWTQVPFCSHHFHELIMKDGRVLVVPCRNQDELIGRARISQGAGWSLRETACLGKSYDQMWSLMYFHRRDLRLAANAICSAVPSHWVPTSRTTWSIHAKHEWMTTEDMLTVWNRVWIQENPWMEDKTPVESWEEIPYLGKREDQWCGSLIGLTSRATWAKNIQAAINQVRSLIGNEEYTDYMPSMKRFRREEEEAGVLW

Cytochrome P450 2D6, sequence (P10635 whole entry): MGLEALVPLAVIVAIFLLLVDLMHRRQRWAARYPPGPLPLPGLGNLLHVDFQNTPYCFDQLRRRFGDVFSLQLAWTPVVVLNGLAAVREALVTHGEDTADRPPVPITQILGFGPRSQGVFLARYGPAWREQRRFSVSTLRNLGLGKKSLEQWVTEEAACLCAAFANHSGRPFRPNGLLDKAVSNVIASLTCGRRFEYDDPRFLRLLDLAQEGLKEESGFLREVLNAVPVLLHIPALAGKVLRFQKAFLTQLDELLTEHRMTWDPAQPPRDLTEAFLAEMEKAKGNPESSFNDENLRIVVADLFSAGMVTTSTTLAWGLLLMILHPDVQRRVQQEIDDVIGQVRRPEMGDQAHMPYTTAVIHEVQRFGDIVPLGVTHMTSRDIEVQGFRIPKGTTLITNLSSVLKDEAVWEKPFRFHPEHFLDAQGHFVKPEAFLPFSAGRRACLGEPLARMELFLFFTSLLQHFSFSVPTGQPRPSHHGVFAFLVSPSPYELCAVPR
Cytochrome P450 2C9, sequence (P11712 whole entry): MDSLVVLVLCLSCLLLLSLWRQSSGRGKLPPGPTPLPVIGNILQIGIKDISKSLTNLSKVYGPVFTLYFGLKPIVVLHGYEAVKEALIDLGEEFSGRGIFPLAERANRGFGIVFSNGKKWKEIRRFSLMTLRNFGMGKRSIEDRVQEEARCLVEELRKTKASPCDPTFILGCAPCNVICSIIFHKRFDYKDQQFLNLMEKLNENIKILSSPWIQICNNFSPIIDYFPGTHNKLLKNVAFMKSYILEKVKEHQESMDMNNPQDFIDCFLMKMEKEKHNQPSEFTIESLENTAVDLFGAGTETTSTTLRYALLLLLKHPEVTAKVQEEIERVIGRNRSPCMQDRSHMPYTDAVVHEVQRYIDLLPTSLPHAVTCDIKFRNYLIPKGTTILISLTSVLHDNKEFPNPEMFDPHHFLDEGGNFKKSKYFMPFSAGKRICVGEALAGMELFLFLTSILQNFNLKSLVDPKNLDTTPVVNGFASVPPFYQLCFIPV

Fc1nc(N2CCCC2)c(F)c(Oc2ccccc2Oc2c(F)c(F)nc(N3CCCC3)c2F)c1F
AC50 (Cytochrome P450 2C9): 1 µM (inconclusive) | AC50 (Cytochrome P450 2D6): inconclusive | AC50 (Cytochrome P450 2C19): 5.62 µM (inconclusive)

CC(C)c1ccc(/C=C(\c2nc3ccccc3[nH]2)S(=O)(=O)c2ccccc2)cc1
AC50 [1]: 18 µM (active) | AC50 [2]: 4.01 µM (active) | AC50 [3]: 2.09 µM (active) | EC50 (Protein RecA): 2.01 µM (active) | AC50 [4]: 10.5 µM (active) | AC50 (Paired box protein Pax-8): 5.15 µM (active) | AC50 (INS1): 4.38 µM (active) | IC50 [5]: 2.72 µM (active)

CCOc1ccc(-c2nnc(-c3ccco3)o2)cc1OCC
IC50 (HEK293 [6]): > 67.5 µM (inactive) | IC50 [7]: > 67.5 µM (inactive)

CN(C)S(=O)(=O)c1cccc(CSCc2cccc(S(=O)(=O)N(C)C)c2)c1
IC50 (HEK293 [8]): 5 µM (active) | IC50 (HEK293 [9]): 3.06 µM (active) | IC50 (Tumor necrosis factor): 2.09 µM (active) | EC50 (HEK293 [10]): 1.3 µM (active) | IC50 (HEK293 [11]): > 20 µM (inactive) | AC50 (INS1): 3.3 µM (active) | IC50 (HEK293 [12]): > 20 µM (inactive) | IC50 [13]: 2.12 µM (active)

COc1ccc(NC(=O)C2CCCN2S(=O)(=O)c2cccc3cccnc23)c(OC)c1 (configuration not stated)
AC50 [14]: 1.49 µM (active) | IC50 [15]: > 100 µM (active)

CCOC(=O)CSc1nnc(NC(=O)c2cccc(S(=O)(=O)N3CCCCCC3)c2)s1
AC50 (Cytochrome P450 2D6): inconclusive | AC50 (Cytochrome P450 2C19): 2 µM (inconclusive)

Cc1ccc(/C=C2\SC(=S)N(NS(=O)(=O)c3ccc(C)cc3)C2=O)cc1
IC50 (Genome polyprotein): 25.9 µM (active)

Nc1cccc(Oc2c(F)c(F)c(Oc3cccc(N)c3)c(F)c2F)c1
AC50 [14]: 7.55 µM (active)

CCCCN=C(S)NNC(=O)c1sccc1C
AC50 (Cytochrome P450 2D6): inconclusive

CCn1nc(C)cc1C(=O)NC1CCCc2c1cnn2-c1ccc(C)c(C)c1 (configuration not stated)
IC50 (Tumor necrosis factor): 4.43 µM (active) | IC50 (HEK293 [11]): > 20 µM (inactive) | IC50 [13]: 4.76 µM (active)

N=C(Cc1ccc(Cl)cc1Cl)NOC(=O)c1cccs1
AC50 [14]: 3.59 µM (active)

COc1ccc(C(=O)Nc2ccc(NC(=O)c3ccco3)c(Cl)c2)cc1OC
AC50 (Cytochrome P450 2D6): inconclusive

O=C1C(=NO)CCc2ccccc21
IC50 (Genome polyprotein): 88.6 µM (active)

Cc1ccc(OCC(=O)NC(=S)Nc2cccc(C)n2)cc1
IC50 (HEK293 [6]): > 67.5 µM (inactive) | IC50 [7]: > 67.5 µM (inactive)

NCCCCC(=O)O [5-AMINOVALERIC ACID]
AC50 (Cytochrome P450 2D6): inconclusive
